Literature values in US9308173B2, “Slow-releasing ophthalmic compositions comprising povidone iodine” (JIANGSU DEDA PHARMACEUTICALS CO., LTD., priority 2011, dated 2016).
Where two headings read alike, the source gives them in different places.

Test system: infected eyes

Povidone iodine [PVP-I]
Toxicity and irritation to the eye (0.02% eye drop (Grimes et al. 1992)): without the toxic affection and irritation
Germicidal effect (0.02% eye drop, infected eyes treated repeatedly (Grimes et al. 1992)): same germicidal effects as one with concentration of 5.0% povidone iodine
Toxicity to the eye (0.04% eye drops, clinical disinfection of eyes): no noticeable toxicity
Toxicity to the eye (eye drops at high concentrations of 5%): toxic effects that cannot be ignored
